According to PubChem BioAssay (NCI):
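Assay format: 96-well plates, 48-hour exposure. The concentration for 50% growth inhibition is given as GI50. TGI marks complete inhibition of growth.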

Tests used:
Assay in all cases: inhibition of tumour cell growth, NCI panel, 48 h
OVCAR-4 ovarian = system: OVCAR-4 ovarian
K-562 leukemia = system: K-562 leukemia
SF-539 CNS = system: SF-539 CNS
UACC-62 melanoma = system: UACC-62 melanoma
NCI-H23 lung = system: NCI-H23 lung
SN12C renal = system: SN12C renal
TK-10 renal = system: TK-10 renal
SF-268 CNS = system: SF-268 CNS
UACC-257 melanoma = system: UACC-257 melanoma
MDA-MB-231 breast = system: MDA-MB-231 breast
OVCAR-3 ovarian = system: OVCAR-3 ovarian
ACHN renal = system: ACHN renal
MCF7 breast = system: MCF7 breast
SNB-75 CNS = system: SNB-75 CNS
DU-145 prostate = system: DU-145 prostate
NCI-H460 lung = system: NCI-H460 lung
NCI-H226 lung = system: NCI-H226 lung
786-0 renal = system: 786-0 renal
COLO 205 colon = system: COLO 205 colon
MALME-3M melanoma = system: MALME-3M melanoma
SR leukemia = system: SR leukemia
MOLT-4 leukemia = system: MOLT-4 leukemia
A549 NSCLC = system: A549 NSCLC
SW-620 colon = system: SW-620 colon
RXF 393 renal = system: RXF 393 renal
SK-MEL-2 melanoma = system: SK-MEL-2 melanoma
MDA-MB-435 = system: MDA-MB-435
SF-295 CNS = system: SF-295 CNS
M14 melanoma = system: M14 melanoma
SK-OV-3 ovarian = system: SK-OV-3 ovarian
UO-31 renal = system: UO-31 renal
HT29 colon = system: HT29 colon
CCRF-CEM leukemia = system: CCRF-CEM leukemia
EKVX NSCLC = system: EKVX NSCLC
CAKI-1 renal = system: CAKI-1 renal
NCI-H522 lung = system: NCI-H522 lung
HOP-62 NSCLC = system: HOP-62 NSCLC
T-47D breast = system: T-47D breast
NCI/ADR-RES ovarian = system: NCI/ADR-RES ovarian
HL-60(TB) leukemia = system: HL-60(TB) leukemia
BT-549 breast = system: BT-549 breast
HCT-116 colon = system: HCT-116 colon
HOP-92 NSCLC = system: HOP-92 NSCLC
U251 CNS = system: U251 CNS
HCC-2998 colon = system: HCC-2998 colon
SNB-19 CNS = system: SNB-19 CNS
OVCAR-5 ovarian = system: OVCAR-5 ovarian
RPMI-8226 leukemia = system: RPMI-8226 leukemia
A498 renal = system: A498 renal
PC-3 prostate = system: PC-3 prostate
HS 578T breast = system: HS 578T breast
IGROV1 ovarian = system: IGROV1 ovarian
SK-MEL-5 melanoma = system: SK-MEL-5 melanoma
KM12 colon = system: KM12 colon
LOX IMVI melanoma = system: LOX IMVI melanoma
OVCAR-8 ovarian = system: OVCAR-8 ovarian
HCT-15 colon = system: HCT-15 colon
SK-MEL-28 melanoma = system: SK-MEL-28 melanoma

For `COC(=O)CCC1=C(C)C(C)=N/C1=C\c1[nH]c(-c2ccc[nH]2)cc1OC`, the GI50 (OVCAR-4 ovarian) was 371 nM, the TGI (OVCAR-4 ovarian) was 7.46 µM and the GI50 (K-562 leukemia) was 462 nM. For the same molecule, the TGI (K-562 leukemia) was 24.2 µM, the GI50 (SF-539 CNS) was 639 nM and the TGI (SF-539 CNS) was 6.38 µM. It also gave a GI50 (UACC-62 melanoma) of 365 nM, a TGI (UACC-62 melanoma) of 1260 nM and a GI50 (NCI-H23 lung) of 805 nM. It also gave a TGI (NCI-H23 lung) of 11.4 µM, a GI50 (SN12C renal) of 805 nM and a TGI (SN12C renal) of 14.3 µM. It also gave a GI50 (TK-10 renal) of 930 nM, a TGI (TK-10 renal) of 10.1 µM and a GI50 (SF-268 CNS) of 935 nM. It also gave a TGI (SF-268 CNS) of 16.2 µM, a GI50 (UACC-257 melanoma) of 1440 nM and a TGI (UACC-257 melanoma) of 9.86 µM. For the same molecule, the GI50 (MDA-MB-231 breast) was 228 nM, the TGI (MDA-MB-231 breast) was 2090 nM and the GI50 (OVCAR-3 ovarian) was 478 nM. It also gave a TGI (OVCAR-3 ovarian) of 2410 nM, a GI50 (ACHN renal) of 410 nM and a TGI (ACHN renal) of 2760 nM. For the same molecule, the GI50 (MCF7 breast) was 297 nM, the TGI (MCF7 breast) was 2790 nM and the GI50 (SNB-75 CNS) was 434 nM. It also gave a TGI (SNB-75 CNS) of 3.62 µM, a GI50 (DU-145 prostate) of 880 nM and a TGI (DU-145 prostate) of 14.9 µM. The GI50 (NCI-H460 lung) was 490 nM, the TGI (NCI-H460 lung) was 12.1 µM and the GI50 (NCI-H226 lung) was 313 nM. It also gave a TGI (NCI-H226 lung) of 1800 nM, a GI50 (786-0 renal) of 456 nM and a TGI (786-0 renal) of 2950 nM. The GI50 (COLO 205 colon) was 394 nM, the TGI (COLO 205 colon) was 1480 nM and the GI50 (MALME-3M melanoma) was 2010 nM. The TGI (MALME-3M melanoma) was 7.09 µM, the GI50 (SR leukemia) was 352 nM and the GI50 (MOLT-4 leukemia) was 567 nM. For the same molecule, the TGI (MOLT-4 leukemia) was 16.4 µM, the GI50 (A549 NSCLC) was 368 nM and the TGI (A549 NSCLC) was 10.2 µM. The GI50 (SW-620 colon) was 385 nM, the TGI (SW-620 colon) was 11.9 µM and the GI50 (RXF 393 renal) was 242 nM. For the same molecule, the TGI (RXF 393 renal) was 1060 nM, the GI50 (SK-MEL-2 melanoma) was 363 nM and the TGI (SK-MEL-2 melanoma) was 1210 nM. It also gave a GI50 (MDA-MB-435) of 472 nM, a TGI (MDA-MB-435) of 5.34 µM and a GI50 (SF-295 CNS) of 724 nM. It also gave a TGI (SF-295 CNS) of 4.28 µM, a GI50 (M14 melanoma) of 548 nM and a TGI (M14 melanoma) of 12.2 µM. For the same molecule, the GI50 (SK-OV-3 ovarian) was 2820 nM, the TGI (SK-OV-3 ovarian) was 15.9 µM and the GI50 (UO-31 renal) was 479 nM. It also gave a TGI (UO-31 renal) of 2550 nM, a GI50 (HT29 colon) of 277 nM and a TGI (HT29 colon) of 3.85 µM. The GI50 (CCRF-CEM leukemia) was 403 nM, the TGI (CCRF-CEM leukemia) was 13.6 µM and the GI50 (EKVX NSCLC) was 712 nM. The TGI (EKVX NSCLC) was 14.3 µM, the GI50 (CAKI-1 renal) was 338 nM and the TGI (CAKI-1 renal) was 6.36 µM. It also gave a GI50 (NCI-H522 lung) of 515 nM, a TGI (NCI-H522 lung) of 1910 nM and a GI50 (HOP-62 NSCLC) of 471 nM. For the same molecule, the TGI (HOP-62 NSCLC) was 1720 nM, the GI50 (T-47D breast) was 329 nM and the TGI (T-47D breast) was 3.42 µM. The GI50 (NCI/ADR-RES ovarian) was 476 nM, the TGI (NCI/ADR-RES ovarian) was 13.2 µM and the GI50 (HL-60(TB) leukemia) was 567 nM. The TGI (HL-60(TB) leukemia) was 3.34 µM, the GI50 (BT-549 breast) was 621 nM and the TGI (BT-549 breast) was 13.4 µM. For the same molecule, the GI50 (HCT-116 colon) was 326 nM, the TGI (HCT-116 colon) was 1260 nM and the GI50 (HOP-92 NSCLC) was 211 nM. It also gave a TGI (HOP-92 NSCLC) of 649 nM, a GI50 (U251 CNS) of 419 nM and a TGI (U251 CNS) of 2870 nM. For the same molecule, the GI50 (HCC-2998 colon) was 464 nM, the TGI (HCC-2998 colon) was 14.6 µM and the GI50 (SNB-19 CNS) was 1890 nM. The TGI (SNB-19 CNS) was 17 µM, the GI50 (OVCAR-5 ovarian) was 490 nM and the TGI (OVCAR-5 ovarian) was 12.2 µM. For the same molecule, the GI50 (RPMI-8226 leukemia) was 356 nM, the TGI (RPMI-8226 leukemia) was 1920 nM and the GI50 (A498 renal) was 3.35 µM. The TGI (A498 renal) was 15.8 µM, the GI50 (PC-3 prostate) was 633 nM and the TGI (PC-3 prostate) was 14.4 µM. The GI50 (HS 578T breast) was 1060 nM, the TGI (HS 578T breast) was 8.15 µM and the GI50 (IGROV1 ovarian) was 1060 nM. For the same molecule, the TGI (IGROV1 ovarian) was 17.4 µM, the GI50 (SK-MEL-5 melanoma) was 145 nM and the TGI (SK-MEL-5 melanoma) was 315 nM. For the same molecule, the GI50 (KM12 colon) was 393 nM, the TGI (KM12 colon) was 6.39 µM and the GI50 (LOX IMVI melanoma) was 221 nM. The TGI (LOX IMVI melanoma) was 609 nM, the GI50 (OVCAR-8 ovarian) was 334 nM and the TGI (OVCAR-8 ovarian) was 12.4 µM. The GI50 (HCT-15 colon) was 262 nM, the TGI (HCT-15 colon) was 3.15 µM and the GI50 (SK-MEL-28 melanoma) was 1850 nM. It also gave a TGI (SK-MEL-28 melanoma) of 8.47 µM.
